In patent US7534769B2, “Compositions and methods for enhancing delivery of therapeutic agents to cells” (Canji, Inc., priority 1996, dated 2009):
“Also recorded” adds a separate entry of the source. Values belong to the molecule of their own block, whether it stands above or below them.

Tests used:
bladder epithelium [1] = assay: rAd-βgal gene transfer to bladder epithelium in detergent formulations, Xgal staining score and gross pathology; details: detergents at their critical micellization concentration
Protocol: rAd-βgal was formulated in different detergents at their critical micellization concentration to evaluate efficiency of gene transfer to the bladder epithelium. Female rats (about 200 g b/w, Harlan Sprague Dawley) were anesthetized with isoflurane and received a single intravesical administration of rAd-βgal (1×10^11 PN/ml) in different detergent formulations (see Table I). Before instillation, bladders were flushed with PBS and then emptied. rAd-βgal was then instilled in a volume of 0.5 ml. The instilled solution was retained in the bladder for 45 minutes. The bladders were then flushed with PBS, and the animals were permitted to recover from the procedure. 48 hours after administration, the rats were sacrificed, the bladders harvested, and fixed in formalin. After fixation, the bladders were opened longitudinally so that the urothelium was exposed to the chromogen (Xgal), that is converted to a blue color, if reporter gene (β-galactosidase) expression is present. The luminal epithelial surface of the whole bladder was photographed an blue staining scored: + (minimal staining), ++ (moderate staining), +++ intense staining covering the whole bladder epithelial surface.
Briefly, in anaesthetized female rats rAd-βgal (1×10^11 PN/ml) was administered into the bladder via an intravesical catheter. rAd-βgal was formulated in different concentrations of Big CHAP (CALBIOCHEM®). A volume of 0.5 ml was injected and remained instilled in the bladder for 45 minutes. The animals were sacrificed 48 hours later, the bladder fixed in 4% formalin/glutaraldehyde, opened longitudinally, and the β-galactosidase enzyme activity measured using Xgal substrate. The intensity of blue staining correlates with the βgal-transgene expression.
Effects of higher recombinant adenovirus concentrations were also tested. Briefly, in anaesthetized female rats different concentrations of rAd-βgal, formulated in 7 mM Big CHAP (CALBIOCHEM®) were administered into the bladder via an intravesical catheter. The animals were sacrificed 48 hours later, the bladder fixed in 4% formalin/glutaraldehyde, opened longitudinally, and Xgal stained.

bladder tissue = assay: Cystitis evaluation of formulations in mice, bladder histopathology; details: 80 μL intravesical, 7-day interval; 7 mM Big CHAP, 0.05 mM TRITON X-100 or 22% ethanol
Protocol: The formulations were administered intravesically in a volume of 80 μL, and animals were observed over a 7-day interval. After sacrifice, bladders were paraffin-embedded, sectioned, and stained with hematoxylin and eosin for pathologic evaluation.

[2] = Solubility and dissolution behaviour; type: physicochemical
bladder [3] = assay: Gene transfer activity of water-soluble Syn3 analogs in vivo, whole organ Xgal staining; parameters: species or system rat; details: summary, Concentration 1 mg/ml
Protocol: A concentration of 1 mg/ml was chosen for initial testing of both compounds.
The solution of A-TMA was prepared by dissoluting 10 mg of A-TMA into 10 ml Dulbecco's PBS. Glycerol was added to provide a final concentration of 10 mg/ml. All solutions were sterile filtered prior to use (0.2 μm Acrodisc syring filter). The virus (BGCG 70AAB) was diluted 1:10 into either this A-TMA solution, or into Dulbecco's PBS-glycerol prior to administration.
Ten mg of A-HCl was dissoluted into this buffer and sterile filtered prior to use (0.2 μm Acrodisc suring filter). The virus (BGCG 70AAB) was diluted 1:10 into this solution prior to administration. For comparison, the virus diluted into this buffer without A-HCl was also tested.
Female HSD rats were anesthetized using isofluorane. The rats were transuretherally catheterized into the bladder using PE50 tubing lubricated with K-Y jelly. A tie-off was installed on the external urethra to prevent back leakage. Urine, if any, was removed and the bladder was flushed with 0.5 ml PBS and emptied. rAd was diluted to the desired concentration (1:10) and instilled for 45 minutes. The dosing material was removed, noting the return volume. The bladder was flushed with 0.5 ml PBS and emptied. The tie-off and catheter were removed, and the animals were allowed to recover in cages.
After 48 hours, the animals were sacrificed and their bladders inflation fixed with 0.5 ml fixative for 1 hour. The bladders were then rinsed overnight and whole organ Xgal staining was conducted.

[4] = Stability of Syn3 in solution; type: physicochemical
Protocol: However, if left at room temperature at this high concentration (100 mg/ml), it will solidify within 24 hours.

bladder urothelium = assay: Histological examination of Syn3 treated bladders (infiltrates); type: in vivo, rat; details: for inflammation / infiltration at lower concentration of Syn3: 0.25 mg/ml compared with 0.5 mg/ml, decreasing concentrations in Big CHAP or Tween 80
Protocol: (§1) Following removal of virus and flushing of the bladder, the animals were allowed to recover. After 48 hours the animals were sacrificed, their bladders fixed, and stained for β-gal expression. Following photographic recording, bladders were embedded in paraffin for sectioning and histological examination.
Bladders from animals treated with Syn3-rAd (β-Gal) were prepared for histological examination to determine the levels of viral infection, as well as the degree of viral penetration into the bladder urothelium.

bladder [5] = assay: Gene transfer activity of Syn3 in Big CHAP or Tween-80, β-galactosidase expression in bladder; type: in vivo, rat; details: for gene transfer activity / β-gal expression: 0.5 mg/ml in 7.8 mM Big CHAP
Protocol: as §1

bladder epithelium [6] = type: in vivo, rat
Protocol: Nine female buffalo rats (Harlan Sprague Dawley) were anesthetized with isoflurane and received a single intravesical administration of a human recombinant adenovirus encoding the lacZ gene (rAd-βgal). […] The administered material was retained in the bladder for 45 minutes. The bladder were then flushed with PBS, and the animals were permitted to recover from the procedure. Two days after administration, rats were sacrificed, bladders were harvested, fixed, and whole organs were stained with an Xgal (5-Bromo-4-chloro-3-indolyl-β-D-galactoside) solution to evaluate reporter gene transfer. Xgal-stained tissues were then paraffin embedded, sectioned, and counter stained with hematoxylin and eosin.
After a 45 minute incubation, the bladders were flushed with PBS, and animals were permitted to recover from anesthesia.

[7] = test system: bladder, kidney and liver homogenates; assay: ACNRB transgene expression by RT-PCR after intravesical administration; type: in vivo, mouse
Protocol: After the virus was retained in the bladder for 45 minutes, the animals were permitted to recover and void. […] Following amplification (30 cycles) RT-PCR products were separated on a 10% polyacrylamide gel, stained with ethidium bromide, and photographed. […] Untreated samples and bladder samples without the reverse transcriptase (RT) provided controls for contaminating DNA.
The instilled material was retained in the bladder for approximately 45 minutes, and animals were permitted to recover from the procedure. Mice were sacrificed 1, 2, 3, 4, 5, 6, 7, and 14 days after administration (N=4/time) for analysis. Bladders, livers, and kidneys were harvested and snap frozen in liquid nitrogen for subsequent analysis.
After the virus was retained in the bladder for 45 minutes, the animals were permitted to recover. […] Transgene expression was determined using RT-PCR. Tissues were rinsed in RNAse free water, homogenized, digested in Tri-Reagent (Molecular Research Center), and total cellular RNA extracted. […] RT-PCR was performed in the Perkin Elmer 9600 GeneAmp PCR System. Cycling conditions were 10 min at 65° C., 8 min at 50° C., 5 min at 95° C. 32 cycles of PCR were performed, each cycle consisting of 30 sec at 94° C., 30 sec at 58° C., and 30 sec at 72° C. The 32nd cycle included a 10 min elongation step at 72° C. to ensure full extension of incomplete DNA fragments.

Molecule: Triton X-100 [reference compound]
gene transfer to the bladder epithelium (Table I) (bladder epithelium [1]): enhanced gene transfer dramatically | macrophage infiltration into the bladder tissue / cystitis (bladder tissue): slight to mild

behaviour on dissolution in water ([2]; 1 mg/ml in water): appeared to form vesicles | behaviour on dissolution in water ([2]; 10 mg/ml in water): formed a gel | amount of Syn3 that dissolutes ([2]; into 15 mM Big CHAP): Up to 5 mg/ml | time to completely dissolute ([2]; into 10% Tween-80): several hours | period over which gene transfer activity is retained ([4]; 0.25 mg/ml or 0.5 mg/ml in Big CHAP, room temperature): at least 30 days | period of stability ([4]; 1 mg/ml in 0.1% Tween-80, longest period tested): at least 30 days | period of stability ([4]; 100 mg/ml in 10% Tween-80, 4° C.): at least one week | time to solidify ([4]; 100 mg/ml in 10% Tween-80, room temperature): ≤ 24 h | stability (in words) ([4]; dissoluted into Big CHAP detergent): very stable | inflammation / infiltration at lower concentration of Syn3 (bladder urothelium): proportionally lower infiltration | inflammation / infiltration at lower concentration of Syn3 (bladder urothelium; listed as I3A): less inflammation
Molecule: CC(CCC(=O)NCCCN(CCCNC(=O)C(O)C(O)C(OC1OC(CO)C(O)C(O)C1O)C(O)CO)C(=O)CCC(C)C1CCC2C3C(O)CC4CC(O)CCC4(C)C3CC(O)C12C)C1CCC2C3C(O)CC4CC(O)CCC4(C)C3CC(O)C12C (stereo not drawn) [Syn3]
dissolution in Tween 80 ([2]; 1 mg/ml in 0.1% Tween 80): clear solution; also recorded: readily solubilized | gene transfer activity (bladder [3]): ++++ | recruitment of infiltrates to the bladder (bladder urothelium; 0.5 mg/ml in 7.8 mM Big CHAP with rAd): massive recruitment of infiltrates to the bladder | infiltration (bladder urothelium; Syn3 administered alone (no virus)): a significant amount of infiltration; also recorded: significant induction of infiltrates | β-Gal expression on reducing the concentration of Syn3 (histology) (bladder urothelium; in either detergent): concomitant reduction in β-Gal expression | gene transfer activity (bladder [5]; 0.25 mg/ml in 3.9 mM Big CHAP): Very high levels of gene transfer | gene transfer activity (bladder [5]; 0.25 mg/ml in 3.9 mM Big CHAP, listed as I3A): high levels of gene transfer activity | gene transfer activity / β-gal expression (bladder [5]): greatly enhance gene transfer and β-gal expression; also recorded: very high levels of gene transfer activity; also recorded: highest levels of β-galactosidase expression; also recorded: extremely high | gene transfer activity / β-gal expression (bladder [5]; listed as I3A): High levels of gene transfer | gene transfer activity (bladder [5]; 0.5 mg/ml in 0.05% Tween-80): more regions lacking β-galactosidase expression; also recorded: slightly reduced | gene transfer activity (bladder [5]; 1 mg/ml in 0.1% Tween 80): found to enhance gene transfer; also recorded: can enhance gene transfer; also recorded: very high levels of gene transfer; also recorded: consistently high levels of gene transfer; also recorded: effective in enhancing gene transfer; also recorded: Approximately equal levels of gene transfer | gene transfer activity (bladder [5]; 1 mg/ml in 0.1% Tween 80, listed as I3A): very high levels of gene transfer; also recorded: High levels of β-galactosidase activity | gene transfer (bladder [5]; 1 mg/ml in 0.4% Tween-80): almost no gene transfer | gene transfer, 0.5 mg/ml in 7.8 mM Big CHAP compared with 1 mg/ml in 0.1% Tween-80 (bladder [5]; rat, in vivo): approximately equal levels of gene transfer enhancement; also recorded: comparable

Molecule: CCO [ethanol]
macrophage infiltration into the bladder tissue / cystitis (bladder tissue): significant cystitis | β-galactosidase expression of the transitional bladder epithelium (histologic evaluation) (bladder epithelium [6]; ethanol added to the adenovirus formulation): increased β-galactosidase expression | β-galactosidase expression in the luminal epithelial surface (bladder epithelium [6]; rAd-βgal 1.7×10^11 PN/mL diluted in 30% (v/v) ethanol, intravesical 45 min, 2 days after administration): greatly enhanced | ACNRB expression in bladder (RT-PCR) ([7]; ACNRB 4×10^10 PN/mL in 22% (v/v) ethanol or 3 mM Big CHAP versus VPBS, 48 hours): enhanced expression | ACNRB expression in bladder (RT-PCR) ([7]; ACNRB in 30% (v/v) ethanol compared to VPBS, 2 days): Increased ACNRB expression
